#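 Each compound was tested at five concentrations against cells in 96-well plates for 48 hours. GI50 is the concentration that inhibits growth by half. TGI: total growth inhibition.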
# Experiments:
# Assay in all cases: DTP human tumour cell line panel, 48 h
# HT29 colon = system: HT29 colon
# OVCAR-8 ovarian = system: OVCAR-8 ovarian
# A498 renal = system: A498 renal
# OVCAR-5 ovarian = system: OVCAR-5 ovarian
# NCI-H226 lung = system: NCI-H226 lung
# UACC-62 melanoma = system: UACC-62 melanoma
# OVCAR-4 ovarian = system: OVCAR-4 ovarian
# T-47D breast = system: T-47D breast
# SK-MEL-28 melanoma = system: SK-MEL-28 melanoma
# MOLT-4 leukemia = system: MOLT-4 leukemia
Compound,TGI (HT29 colon),TGI (OVCAR-8 ovarian),TGI (A498 renal),TGI (OVCAR-5 ovarian),TGI (NCI-H226 lung),TGI (UACC-62 melanoma),TGI (OVCAR-4 ovarian),TGI (T-47D breast),TGI (SK-MEL-28 melanoma),TGI (MOLT-4 leukemia),GI50 (HT29 colon),GI50 (OVCAR-8 ovarian),GI50 (A498 renal),GI50 (OVCAR-5 ovarian),GI50 (NCI-H226 lung),GI50 (UACC-62 melanoma),GI50 (OVCAR-4 ovarian),GI50 (T-47D breast),GI50 (SK-MEL-28 melanoma),GI50 (MOLT-4 leukemia)
O=C1OC(c2ccc(O)c(-c3ccccc3)c2)(c2ccc(O)c(-c3ccccc3)c2)c2c(Cl)c(Cl)c(Cl)c(Cl)c21,> 100 µM,> 100 µM,> 100 µM,> 100 µM,> 100 µM,> 100 µM,> 100 µM,> 100 µM,> 100 µM,> 100 µM,–,–,–,–,–,–,–,–,–,–
CN1CCN(c2ccc3nc(-c4cc(C(C)(C)C)c(O)c(C(C)(C)C)c4)[nH]c3c2)CC1,4.41 µM,19.1 µM,21.2 µM,12 µM,32.4 µM,3.38 µM,19 µM,7.61 µM,3.4 µM,5.55 µM,2.1 µM,5 µM,7.23 µM,3.53 µM,14.7 µM,1.87 µM,5.43 µM,2.86 µM,1.91 µM,2.2 µM
C#C[C@]1(O)CC[C@H]2[C@@H]3CC=C4c5sc(N=C(N)N)nc5CC[C@]4(C)[C@H]3CC[C@@]21C,1.69 µM,4.53 µM,1.02 µM,2.65 µM,3.97 µM,0.657 µM,2.75 µM,3.16 µM,1.61 µM,1.01 µM,0.361 µM,1.63 µM,0.274 µM,1.33 µM,1.82 µM,0.248 µM,1.33 µM,1.19 µM,0.4 µM,0.297 µM
COc1ccc(-c2n[nH]nc2-c2csc3ccccc23)cc1OC,10.6 µM,39.1 µM,12.1 µM,> 100 µM,74.6 µM,22.2 µM,> 100 µM,32.6 µM,48.5 µM,27.7 µM,2.78 µM,4.24 µM,2.96 µM,7.91 µM,13.2 µM,2.77 µM,6.33 µM,2.83 µM,4.63 µM,3.05 µM
CS(=O)(=O)CCNCc1ccc(-c2ccc3ncnc(Nc4ccc(OCc5cccc(C(F)(F)F)c5)cc4)c3c2)o1,8.32 µM,> 21.9 µM,13.1 µM,24.3 µM,> 25 µM,9.66 µM,> 25 µM,> 23 µM,8.23 µM,> 20.9 µM,4.22 µM,6.91 µM,4.38 µM,9.03 µM,> 16.3 µM,5.11 µM,8.68 µM,7.6 µM,4.29 µM,4.87 µM
CCCCCCCCCCCCCCCc1cc(O)ccc1N,> 100 µM,> 100 µM,75.3 µM,> 100 µM,> 49.2 µM,> 100 µM,3.77 µM,1.76 µM,> 100 µM,> 24.8 µM,> 100 µM,43.5 µM,21.7 µM,28 µM,8.38 µM,13.2 µM,1.23 µM,0.132 µM,> 67.3 µM,0.183 µM
Cn1c(COC(=O)N2CCCCC2)nc2c(N3CCOCC3)nc(-c3ccccc3)nc21,1.59 µM,2.57 µM,2.69 µM,2.97 µM,3.62 µM,2.54 µM,1.85 µM,3.91 µM,2.86 µM,2 µM,0.417 µM,1.03 µM,1.37 µM,1.42 µM,1.59 µM,1.27 µM,0.638 µM,1.47 µM,1.52 µM,0.353 µM
O=C(Nc1cc(C(F)(F)F)ccc1F)Nc1n[nH]c2ccccc12,> 100 µM,> 100 µM,> 100 µM,> 100 µM,> 100 µM,> 100 µM,> 100 µM,> 100 µM,> 100 µM,> 100 µM,> 100 µM,> 100 µM,> 100 µM,> 100 µM,> 100 µM,> 100 µM,> 100 µM,0.215 µM,> 100 µM,> 100 µM
COc1cc(CSc2nc3ccc(C)cc3c(=O)n2Cc2ccccc2)cc(OC)c1OC,80.8 µM,> 100 µM,12.4 µM,> 100 µM,96.1 µM,35.7 µM,63.4 µM,32.6 µM,96.8 µM,> 100 µM,0.595 µM,4.41 µM,2.14 µM,4.82 µM,11.5 µM,2.03 µM,5.01 µM,2.98 µM,2.99 µM,4.57 µM
CC(ONC(=O)c1cc(C(F)(F)F)cc(C(F)(F)F)c1)C(=O)Nc1ccc(Cl)cc1 (stereo not given),27.2 µM,> 62.1 µM,14.5 µM,25.1 µM,> 64.4 µM,14.1 µM,> 100 µM,> 60.8 µM,37.4 µM,22.3 µM,5.92 µM,6.2 µM,3.35 µM,5.53 µM,7.31 µM,3.98 µM,4.64 µM,3.78 µM,5.4 µM,2.65 µM
O=C(O)C1C2CC3C(OC(=O)C31)C2Br (stereo not given),> 100 µM,> 100 µM,> 100 µM,> 100 µM,> 100 µM,> 100 µM,> 100 µM,> 100 µM,> 100 µM,> 58.1 µM,–,–,–,–,–,–,–,–,–,–
CCC(Sc1nnc2c3ccccc3n(CC)c2n1)C(=O)Nc1ccccc1OC (stereo not given),> 100 µM,> 100 µM,6.77 µM,11.7 µM,> 100 µM,> 100 µM,> 100 µM,> 100 µM,> 100 µM,> 100 µM,> 100 µM,> 100 µM,2.2 µM,1.94 µM,53.6 µM,> 100 µM,> 75.7 µM,7.74 µM,> 100 µM,35 µM
CCCN(CCC)c1ccc(CO)c(C)c1,> 100 µM,> 100 µM,3.64 µM,44.2 µM,23.7 µM,> 100 µM,25.3 µM,33.5 µM,> 100 µM,> 100 µM,90.2 µM,27.4 µM,1.09 µM,13.1 µM,9.4 µM,22.8 µM,11.3 µM,13.9 µM,> 100 µM,26.8 µM
O=C1C=C(Nc2ccccc2C(=O)CC(=O)C(=O)Nc2cccc(C(F)(F)F)c2)c2ccccc2C1=O,> 100 µM,56.4 µM,> 100 µM,> 100 µM,> 100 µM,32.3 µM,> 87.4 µM,> 100 µM,54.8 µM,> 57.9 µM,–,–,–,–,–,–,–,–,–,–
COc1cc(OC)c2c(=O)c(O)c(-c3ccc(OC)c(OC)c3)oc2c1,> 100 µM,> 100 µM,> 100 µM,> 100 µM,> 100 µM,> 31.6 µM,2.31 µM,31.4 µM,> 31.6 µM,9.61 µM,–,–,–,–,–,–,–,–,–,–
COc1ccc(C(O)CNC(=O)c2ccccc2)cc1 (stereo not given),> 100 µM,> 100 µM,> 100 µM,> 100 µM,> 100 µM,> 100 µM,> 100 µM,> 100 µM,> 100 µM,> 100 µM,–,–,–,–,–,–,–,–,–,–
COC(=O)CCC(=O)c1c(C)[nH]c(/C=C2\N=C(c3ccc[nH]3)C=C2OC)c1C,1.48 µM,2.23 µM,20.7 µM,5.52 µM,3.27 µM,3.49 µM,17 µM,4.09 µM,3.18 µM,1.85 µM,0.0737 µM,0.754 µM,7.86 µM,1.48 µM,1.08 µM,1.37 µM,2.12 µM,0.931 µM,1.27 µM,0.405 µM
COc1ccc2c(c1)c(C1(c3cn(C)c4ccc(OC)cc34)C(=O)Nc3ccc(F)cc31)cn2C,23 µM,> 100 µM,75.3 µM,84.8 µM,> 100 µM,56.2 µM,> 100 µM,> 100 µM,25.5 µM,50.1 µM,3.52 µM,4.28 µM,13.6 µM,9.94 µM,11.9 µM,7.42 µM,3.92 µM,4.75 µM,5.3 µM,4.57 µM
COc1ccc(O)c(C(=O)c2ccc(C(=O)O[C@@H]3CCCNC[C@H]3NC(=O)c3ccncc3)cc2)c1F,> 25 µM,> 25 µM,1.6 µM,> 25 µM,> 25 µM,> 25 µM,> 25 µM,> 25 µM,> 25 µM,> 5.54 µM,0.944 µM,1.04 µM,0.189 µM,> 19.3 µM,1.68 µM,1.51 µM,7.9 µM,1.36 µM,2.73 µM,0.456 µM
CCOC(=O)CC1(O)C=CC(=O)C=C1,4.46 µg/mL,1.13 µg/mL,5.26 µg/mL,5.42 µg/mL,13 µg/mL,1.7 µg/mL,4.44 µg/mL,2.31 µg/mL,2.89 µg/mL,1.61 µg/mL,2.17 µg/mL,0.425 µg/mL,3.09 µg/mL,3.18 µg/mL,4.79 µg/mL,0.485 µg/mL,2.21 µg/mL,0.667 µg/mL,1.04 µg/mL,0.4 µg/mL
CC(=O)O[C@@H]1CO[C@H]2O[C@H]3[C@@H](C(C=O)=C[C@H](O)[C@@H]4C5=C(C(C)C)CC[C@]5(C)CC[C@@]34C)[C@@]2(O)C1=O,0.471 µM,0.52 µM,1.96 µM,1.12 µM,1.02 µM,1.06 µM,0.943 µM,0.378 µM,0.771 µM,0.28 µM,–,–,–,–,–,–,–,–,–,–
CO[C@@H]1[C@@H](OC2OC(C)C(OC3CC(C)(O)C(OC(=O)CC(C)C)C(C)O3)C(N(C)C)C2O)[C@@H](CC=O)C[C@@H](C)C(=O)/C=C/C2O[C@H]2C[C@@H](C)OC(=O)C[C@H]1OC(C)=O (stereo not given in full),26.4 µM,> 100 µM,52 µM,31.8 µM,33.5 µM,60.1 µM,86.7 µM,84.4 µM,34.8 µM,27.7 µM,–,–,–,–,–,–,–,–,–,–
ClCCN(CCCl)c1ccc(-n2cnc3c(Cl)ncnc32)cc1,4.15 µM,5.38 µM,24.5 µM,35.9 µM,27.7 µM,3.35 µM,3.33 µM,12.9 µM,3.64 µM,7.84 µM,2.07 µM,2.37 µM,11.9 µM,17.9 µM,13.3 µM,1.81 µM,1.85 µM,3.28 µM,1.94 µM,2.99 µM
C(=C1c2ccccc2-c2ccccc21)c1ccccn1,16.7 µM,77.8 µM,23.7 µM,> 100 µM,> 100 µM,> 100 µM,> 100 µM,50.9 µM,73 µM,> 100 µM,3.56 µM,15.6 µM,3.51 µM,21.8 µM,14.2 µM,5.8 µM,15.3 µM,5.03 µM,8.12 µM,11.8 µM
CCC[C@H](N[C@@H]1CCc2cc(F)cc(F)c2C1)C(=O)Nc1cn(C(C)(C)CNCC(C)(C)C)cn1,30 µM,> 100 µM,42.9 µM,> 77.7 µM,52.9 µM,34.1 µM,> 100 µM,> 65.4 µM,33.9 µM,> 68.1 µM,11.7 µM,27.5 µM,7.41 µM,21.1 µM,16.5 µM,15.6 µM,23.5 µM,16 µM,15.1 µM,8.03 µM
COc1cccc(/C=N\Nc2ccc([N+](=O)[O-])cn2)c1O,> 100 µM,15.6 µM,15.4 µM,82.7 µM,26.2 µM,8.9 µM,> 100 µM,89.1 µM,> 100 µM,16.9 µM,28.8 µM,2.55 µM,2.42 µM,5.71 µM,3.72 µM,2.47 µM,4.28 µM,3.83 µM,19.6 µM,3.43 µM
CC(C)(C)c1ccc([I+]c2ccc(C(C)(C)C)cc2)cc1,4.78 µM,3.72 µM,3.81 µM,12.9 µM,5.32 µM,2.31 µM,11 µM,5.67 µM,3.14 µM,7.79 µM,1.34 µM,1.44 µM,1.37 µM,3.24 µM,1.29 µM,0.69 µM,0.658 µM,0.745 µM,1.11 µM,1.96 µM

# From PubChem BioAssay (NCI)
